Test results reported in patent US6750228B1, “Aromatic sulfone hydroxamic acid metalloprotease inhibitor” (priority 1997, dated 2004).
Like-named read-outs stand apart in the source and are kept apart here.

Experiments:
Experiment in all cases: biochemical
MMP-1 = molecular target: T1, MMP-1 (Homo sapiens, UniProt P03956)
T1 construct: made in house; host or cells: transfected HT-1080 cells (provided by Dr. Harold Welgus, Washington University)
T1 sequence (P03956 100-469): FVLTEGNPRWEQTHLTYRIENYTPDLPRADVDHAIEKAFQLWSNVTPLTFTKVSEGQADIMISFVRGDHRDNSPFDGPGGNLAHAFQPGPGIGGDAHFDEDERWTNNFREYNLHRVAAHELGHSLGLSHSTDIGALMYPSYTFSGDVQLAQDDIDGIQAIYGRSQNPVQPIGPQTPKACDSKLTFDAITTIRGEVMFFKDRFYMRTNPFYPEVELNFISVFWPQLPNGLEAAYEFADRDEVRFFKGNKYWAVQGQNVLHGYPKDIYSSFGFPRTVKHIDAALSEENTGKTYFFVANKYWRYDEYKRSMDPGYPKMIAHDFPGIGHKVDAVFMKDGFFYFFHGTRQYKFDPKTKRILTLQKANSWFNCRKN
Summary of the method: (§1)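 Assay buffer 100 mM Tris-HCl, 100 mM NaCl, 10 mM CaCl2, pH 7.5. Activated MMP + inhibitor, 5 min RT; then methoxycoumarin peptide substrate, 4 μM final. Readout fluorescence; IC50 calculated.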

MMP-13 = molecular target: T2, MMP-13 (Homo sapiens, UniProt P45452)
T2 construct: made in house; host or cells: baculovirus / insect cells
Summary of the method: as §1

MMP-2 = molecular target: T3, MMP-2 (Homo sapiens, UniProt P08253)
T3 construct: made in house; provided by Dr. Gregory Goldberg, Washington University
T3 sequence (P08253 110-660): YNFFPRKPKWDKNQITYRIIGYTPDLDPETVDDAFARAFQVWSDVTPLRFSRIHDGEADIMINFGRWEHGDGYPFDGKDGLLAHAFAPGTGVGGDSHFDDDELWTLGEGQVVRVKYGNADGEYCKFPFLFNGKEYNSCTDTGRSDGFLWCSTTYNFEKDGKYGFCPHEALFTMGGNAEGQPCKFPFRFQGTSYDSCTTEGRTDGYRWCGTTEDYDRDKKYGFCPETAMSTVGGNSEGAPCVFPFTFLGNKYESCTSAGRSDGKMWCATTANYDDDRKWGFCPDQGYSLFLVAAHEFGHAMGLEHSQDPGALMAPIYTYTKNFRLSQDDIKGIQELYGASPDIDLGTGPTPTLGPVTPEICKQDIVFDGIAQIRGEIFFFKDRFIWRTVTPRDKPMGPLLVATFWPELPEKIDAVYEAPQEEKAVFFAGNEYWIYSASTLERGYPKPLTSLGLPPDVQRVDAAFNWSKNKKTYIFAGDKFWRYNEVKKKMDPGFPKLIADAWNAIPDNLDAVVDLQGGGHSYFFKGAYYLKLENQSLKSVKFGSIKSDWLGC
Summary of the method: as §1

[1] = recombinant human MMP-1, MCA peptide substrate 4 μM, pH 7.5, room temperature, read-out: MMP-1 IC50
[2] = recombinant human MMP-13, MCA peptide substrate 4 μM, pH 7.5, room temperature, read-out: MMP-13 IC50
[3] = recombinant human MMP-2, MCA peptide substrate 4 μM, pH 7.5, room temperature, read-out: MMP-2 IC50

Row | Compound | IC50 (MMP-1; [1]) [µM] | IC50 (MMP-13; [2]) [nM] | IC50 (MMP-2; [3]) [nM] | IC50 (MMP-13; MMP-13 IC50 (nM), recombinant human MMP-13, MCA peptide substrate 4 μM, pH 7.5, room temperature) [nM] | IC50 (MMP-13; MMP-13 IC50 (nM)) [nM] | IC50 (MMP-1) [µM] | IC50 (MMP-2; MMP-2 IC50 (nM)) [nM]
1 | Cc1cccc(COC2CCC(Oc3ccc(S(=O)(=O)C4(C(=O)NO)CCOCC4)cc3)C2)c1 (stereo not drawn) [Example 651] | > 10 | 13.7 | 60 |  |  |  | 
2 | O=C(CCCCN1CCCC1)N1CCC(C(=O)NO)(S(=O)(=O)c2ccc(Oc3ccc(C(F)(F)F)cc3)cc2)CC1 [Example 341] | > 10 | 0.6 | 0.2 |  |  |  | 
3 | CC(C)c1cccc(OC2CCN(c3ccc(S(=O)(=O)C4(C(=O)NO)CCOCC4)cc3)CC2)c1 [Example 482] | > 10 | 6 | 4 |  |  |  | 
4 | CC(=N)N1CCC(C(=O)NO)(S(=O)(=O)c2ccc(Oc3ccc(OC(F)(F)F)cc3)cc2)CC1 [Example 412] | 6.4 | 0.4 | 0.2 |  |  |  | 
5 | O=C(CCCCNCc1ccncc1)N1CCC(C(=O)NO)(S(=O)(=O)c2ccc(Oc3ccc(C(F)(F)F)cc3)cc2)CC1 [Example 340] | > 10 | 0.3 | < 0.1 |  |  |  | 
6 | O=C(NO)C1(S(=O)(=O)c2ccc(N3CCC(Oc4ccc([N+](=O)[O-])cc4C(F)(F)F)CC3)cc2)CCOCC1 [Example 481] | > 10 | 50 | 1400 |  |  |  | 
7 | COC[C@@H]1CCN(c2ccc(S(=O)(=O)C3(C(=O)NO)CCOCC3)cc2)C1 [Example 529] | > 10 | 8800 | > 10000 |  |  |  | 
8 | COc1ccc(C(=O)C2CCN(c3ccc(S(=O)(=O)C4(C(=O)NO)CCOCC4)cc3)CC2)cc1 [Example 80] | > 10 | 4.1 | 562 |  |  |  | 
9 | COc1ccc(CCCOC2CCN(c3ccc(S(=O)(=O)C4(C(=O)NO)CCOCC4)cc3)CC2)cc1OC [Example 811] | > 10 | 14.8 | 110 |  |  |  | 
10 | O=C(NO)C1(S(=O)(=O)c2ccc(Oc3ccc(OC(F)(F)F)cc3)cc2)CCN(c2cccnc2)CC1 [Example 392] | > 10 | 0.2 | 0.1 |  |  |  | 
11 | CC(=O)N1CCN(c2ccc(S(=O)(=O)C3(C(=O)NO)CCOCC3)cc2)CC1 [Example 539] | > 10 | 270 | 350 |  |  |  | 
12 | CN1CCN(CCCCC(=O)N2CCC(C(=O)NO)(S(=O)(=O)c3ccc(Oc4ccc(C(F)(F)F)cc4)cc3)CC2)CC1 [Example 339] | > 10 | 1 | 0.3 |  |  |  | 
13 | O=C(NO)C1(S(=O)(=O)c2ccc(N3CCN(C4CCCC4)CC3)cc2)CCOCC1 [Example 488] | > 10 | 140 | 370 |  |  |  | 
14 | O=C(CCCCN1CCCCC1)N1CCC(C(=O)NO)(S(=O)(=O)c2ccc(Oc3ccc(C(F)(F)F)cc3)cc2)CC1 [Example 334] | > 10 | 0.7 | 0.3 |  |  |  | 
15 | CC1CC(C)CN(C(=O)C2CCN(c3ccc(S(=O)(=O)C4(C(=O)NO)CCN(C(=O)CN5CCCC5=O)CC4)cc3)CC2)C1 (stereo not drawn) [Example 314] | > 10 | 65 | > 10000 |  |  |  | 
16 | O=C(NO)C1(S(=O)(=O)c2ccc(N3CCC(SCc4ccccc4)CC3)cc2)CCOCC1 [Example 707] | > 10 | 2.3 | 9 |  |  |  | 
17 | CC1CCCN(c2ccc(S(=O)(=O)C3(C(=O)NO)CCOCC3)cc2)C1 (stereo not drawn) [Example 496] | > 10 | 30.7 | 200 |  |  |  | 
18 | O=C(NO)C1(S(=O)(=O)c2ccc(N3CCC(c4cccc5ccccc45)CC3)cc2)CCOCC1 [Example 540] | > 10 |  | 500 | 11.4 |  |  | 
19 | CCOC(=O)CN1CCN(CC(=O)N2CCC(C(=O)NO)(S(=O)(=O)c3ccc(N4CCC(C(=O)N5CC(C)CC(C)C5)CC4)cc3)CC2)CC1 (stereo not drawn) [Example 305] | > 10 | 28.6 | > 10000 |  |  |  | 

Row | Compound | IC50 (MMP-1; [1]) [µM] | IC50 (MMP-13; [2]) [nM] | IC50 (MMP-2; [3]) [nM] | IC50 (MMP-13; MMP-13 IC50 (nM), recombinant human MMP-13, MCA peptide substrate 4 μM, pH 7.5, room temperature) [nM] | IC50 (MMP-13; MMP-13 IC50 (nM)) [nM] | IC50 (MMP-1) [µM] | IC50 (MMP-2; MMP-2 IC50 (nM)) [nM]
20 | O=C(Nc1ccccc1Cl)N1CCC(C(=O)NO)(S(=O)(=O)c2ccc(Oc3ccc(OC(F)(F)F)cc3)cc2)CC1 [Example 365] | > 10 | 0.3 | 0.1 |  |  |  | 
21 | Cc1ccc(C(=O)C2CCN(c3ccc(S(=O)(=O)C4(C(=O)NO)CCOCC4)cc3)CC2)cc1C [Example 737] | > 10 | 3 | 1280 |  |  |  | 
22 | CCCCOC1CCN(c2ccc(S(=O)(=O)C3(C(=O)NO)CCN(C(=O)OC(C)(C)C)CC3)cc2)CC1 [Example 442] | > 10 | 10 | 211 |  |  |  | 
23 | O=C(CNCc1cccnc1)N1CCC(C(=O)NO)(S(=O)(=O)c2ccc(Oc3ccc(C(F)(F)F)cc3)cc2)CC1 [Example 316] | > 10 | 0.4 | 0.2 |  |  |  | 
24 | Cc1ccc(N2CCN(c3ccc(S(=O)(=O)C4(C(=O)NO)CCOCC4)cc3)CC2)cc1 [Example 535] | > 10 |  | 35 |  | 1.9 |  | 
25 | CCCCC(=O)N1CCN(c2ccc(S(=O)(=O)C3(C(=O)NO)CCOCC3)cc2)CC1 [Example 591] | > 10 | 70 | 730 |  |  |  | 
26 | O=C(NO)C1(S(=O)(=O)c2ccc(N3CC[C@@H](OCc4ccc(OC(F)(F)F)cc4)C3)cc2)CCOCC1 [Example 467] | > 10 | 27 | 140 |  |  |  | 
27 | CN(C(=O)C1CCN(c2ccc(S(=O)(=O)C3(C(=O)NO)CCOCC3)cc2)CC1)c1ccccc1 [Example 60] | > 10 | 13.9 | 3700 |  |  |  | 
28 | CCCCOC1CCN(c2ccc(S(=O)(=O)C3(C(=O)NO)CCN(C4CC4)CC3)cc2)CC1 [Example 440] | > 10 | 26.8 | 240 |  |  |  | 
29 | CCOC(=O)CN1CCN(c2ccc(S(=O)(=O)C3(C(=O)NO)CCOCC3)cc2)CC1 [Example 621] | > 10 | 120 | 1500 |  |  |  | 
30 | CC1CC(C)CN(C(=O)C2CCN(c3ccc(S(=O)(=O)C4(C(=O)NO)CCN(C(=O)CN5CCCC5CO)CC4)cc3)CC2)C1 (stereo not drawn) [Example 297] | > 10 | 34.9 | > 10000 |  |  |  | 
31 | Cc1cc(C)cc(C(=O)C2CCN(c3ccc(S(=O)(=O)C4(C(=O)NO)CCOCC4)cc3)CC2)c1 [Example 730] | > 10 | 37 | 3000 |  |  |  | 
32 | Cc1cccc(S(=O)(=O)N2CCN(c3ccc(S(=O)(=O)C4(C(=O)NO)CCOCC4)cc3)CC2)c1 [Example 671] | > 10 | 6 | 130 |  |  |  | 
33 | O=C(c1ccc(C(F)(F)F)c(F)c1)C1CCN(c2ccc(S(=O)(=O)C3(C(=O)NO)CCOCC3)cc2)CC1 [Example 738] | > 10 | 22 | 270 |  |  |  | 
34 | O=C(NO)C1(S(=O)(=O)c2ccc(N3CCC(Oc4ccc(C(F)(F)F)cc4[N+](=O)[O-])CC3)cc2)CCOCC1 [Example 571] | > 10 | 28.6 | 140 |  |  |  | 
35 | O=C(Cn1ccnc1)N1CCC(C(=O)NO)(S(=O)(=O)c2ccc(Oc3ccc(C(F)(F)F)cc3)cc2)CC1 [Example 317] | > 10 | 1.4 | 0.4 |  |  |  | 
36 | COc1ccc(C(=O)N2CCN(c3ccc(S(=O)(=O)C4(C(=O)NO)CCOCC4)cc3)CC2)cc1 [Example 594] |  | 570 |  |  |  | > 10 | 650
37 | O=C(CCCCN1CCOCC1)N1CCC(C(=O)NO)(S(=O)(=O)c2ccc(Oc3ccc(C(F)(F)F)cc3)cc2)CC1 [Example 335] | > 10 | 0.9 | 0.15 |  |  |  | 
38 | O=C(NO)C1(S(=O)(=O)c2ccc(N3CC4CC3CO4)cc2)CCOCC1 (stereo not drawn) [Example 492] | > 10 | 6100 | > 10000 |  |  |  | 
